The values below come from patent US20080206198A1, “Compounds and methods for pharmico-gene therapy of epithelial sodium channel associated disorders” (priority 2003, published 2008).

SMILES strings stand for the structures.

In data set [1] the test system is polarized human airway epithelial cells. The conditions noted are these: hypotonic EGTA solution alone; cited from earlier work.
The test system of data set [2] is HeLa cells. The data set is described as follows: AAV2 FLAG-Luc transduction of HeLa cells (luciferase screen). In kind it is cell-based, human. From the text: A. To screen for agents that enhance rAAV transduction, any number of cells can be used. A range of concentrations of the agent to be tested can be determined based on, for instance desirable profiles of the agent, desirable toxicity profiles of the agent and/or concentration of the agents employed in vivo. The usefulness of the cell type chosen for the screen can be confirmed by testing compounds, e.g., proteasome inhibitors such as LLnL and ZLL which are known to increase rAAV transduction. For example, a AAV2 FLAG-Luc vector was employed to transduce HeLa, ferret fibroblasts, IB3 and Huh (liver) cells in the presence or absence of the proteasome inhibitor MG132. MG132 was confirmed to enhance AAV transduction in all cell types tested: HeLa cell transduction was enhanced about 500-fold at 80 μM, and 200-fold at 40 μM, MG132; ferret fibroblast cell transduction was enhanced about 200-fold at 20 μM, and 17-fold at 4 μM, MG132; IB3-1 cell transduction was enhanced about 30 to 70-fold at 20 to 80 μM MG132; and Huh-7 cell transduction was enhanced about 15-fold at 20 to 80 μM MG132. There was no difference in rAAV transduction efficiency in HeLa cells when either DMSO or ETOH was used as a vehicle for MG132. B. HeLa cells were selected to screen for additional agents that enhance rAAV transduction, although any cell strain or line; or primary cells, may be employed. […] The range of concentrations of the agents to be tested were selected based on solubility profiles, toxicity profiles and/or concentrations previously employed in vivo.
HeLa cells were infected for 2 hours with an MOI of 100 rAAV in the presence of agents, e.g., ritonavir (Norvir) (1, 10 and 100 μM), cyclosporin A (2.5, 25 and 250 μg/ml), epoxomicin (1, 10 and 50 μM), alcacinomycin A (5, 50 or 500 μM), chymostatin (1, 10 and 100 μM), bestatin (1, 10 and 100 μM), doxorubicin (adriamycin) (0.1, 1 and 10 μM), camptothecin (camptosar) (1, 10 and 100 μM), eicosapentanoic acid (1, 10 and 100 μM), tannic acid (2, 20, 200 and 2000 μM), simvastatin, prodrug (2, 20 and 200 μM), cisplatin (0.2, 2 and 20 μg/mL), and chloroquine (4, 40 and 400 μM). Forty-eight hours after infection, cells were harvested for analysis. rAAV transduction was measured by removing the media from the cell cultures, adding 100 μL reporter lysis buffer (RLB) and freezing. The supernatant was thawed and transferred to microfuge tubes, freeze thawed an additional 2 times, clarified by centrifugation for 10 minutes and then analyzed for reporter gene expression on the lumometer. Protein was determined by Bradford analysis and results were expressed as relative light units per mg protein (RLU/mg).
Based on results with doxorubicin, a small number of FDA approved anthracyclines were tested for their relative in vitro and in vivo activities on AAV transduction. HeLa cells were infected with 100 ppc AAV2FLAG-Luc for 2 hours in the presence of different anthracyclines, e.g., doxorubicin, daunarubicin (Cerubidine), epirubicin (Ellence™), and idarubicin (Idamycin®), and cells harvested 48 hours later. The anthracyclines were pharmaceutical grade, and prepared according to the manufacturer's instructions. Prior to use, the agents were diluted in sterile water to an equal mass, e.g., 0.6 μg/mL, 3 μg/mL and 6 μg/mL. For example, 3 μg/mL idamycin increased luciferase expression by over 5000-fold while doxorubin increased luciferase expression by 58-fold. Generally, the potency was as follows: idarubicin>daunarubicin>epirubicin>doxorubicin.

In data set [3] the test system is Balb/c mice. Nature of the data set: Safety of anthracyclines in Balb/c mice. In kind it is in vivo, mouse. The conditions noted are these: intranasal, 10% HDE. From the text: (§1) Animals were followed for seven days post dose.
Safety endpoints included morbidity and mortality, clinical observations, body weights, gross necropsy observations and histopathology. Transduction endpoints included luciferase and GFP analysis.

Data set [4] concerns mouse lung. The data set is described as follows: Intranasal AAV2-Luc with anthracyclines in Balb/c mice (lung luciferase). It is filed as in vivo. The conditions noted are these: 10% HDE intranasal, day 7.
Source text: as §1
The dose of modulator was based on the Human Dose Equivalent (HDE) and is summarized below in Table 4. For intranasal dose administration, the dose was held constant at 10% of the HDE.
On the day of sacrifice, the left lung was clamped off at the level of the extrapulmonary bronchi, removed and frozen on dry ice. The left lung was homogenized and processed for luciferase expression using Promega's luciferase assay system (Madison, Wis.). Luminescence was measured using the Berthold AutoLumat LB953 instrument. Samples were normalized for total protein using Pierce's Coomassie Plus Protein Assay Reagent (Rockford, Ill.).

As to `O=C(O)CN(CCOCCOCCN(CC(=O)O)CC(=O)O)CC(=O)O` [EGTA], the “increase of AAV transduction from the apical surface” value in data set [1] is listed as 7 to 10 fold.
For the compound `CC(=O)[C@]1(O)Cc2c(O)c3c(c(O)c2[C@@H](O[C@H]2C[C@H](N)[C@H](O)[C@H](C)O2)C1)C(=O)c1ccccc1C3=O` [Idamycin, idarubicin], the “increase in luciferase expression” value in data set [2] (3 μg/mL, 100 ppc AAV2FLAG-Luc, harvest 48 hours) is “over 5000 fold”. Besides, in data set [2] (0.6, 3 and 6 μg/mL), the “order of potency among anthracyclines” value was “idarubicin>daunarubicin>epirubicin>doxorubicin”. Moreover, the “mortality and clinical observations” value in data set [3] (7 days) was “early mortality of some animals, ruffled hair coats and sick mice”. Further, the body weight result in data set [3] (over the week) is “lost considerable body weight”. Also, the figures for the “Fold Increase in luciferase expression” value in data set [4] (both sexes), in data set [4] (female) and in data set [4] (male) were 90, 57 and 111, respectively. Further, the “luciferase expression, Average” value in data set [4] (both sexes) amounted to 5.06E+05; in data set [4] (female) it was 2.02E+05; in data set [4] (male) it was 8.11E+05.
